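Cultured in 96-well plates, cells were exposed to test compound for 48 hours across five concentrations. TGI is the concentration that stops growth completely.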 *1 amine or outer side, *2 acyl side, *3 side chain or, on linkers, in order; H or OH if unused. Where a SMILES comes first, the peptide text is derived from it. [ ]: non-standard residue; d: D form. The star is where a group is joined. X31 = CC(=O)N(C)SCC(N[*:1])C(=O)[*:2]; Cbz = O=C(OCc1ccccc1)*; Bn = c1ccc(C*)cc1; For = O=C*
Tests used:
Assay in all cases: NCI tumour cell line growth inhibition, 48 h
[1] = test system: CAKI-1 renal
[2] = test system: UACC-257 melanoma
[3] = test system: SK-MEL-2 melanoma
[4] = test system: RXF 393 renal
[5] = test system: NCI-H522 lung
[6] = test system: MCF7 breast
[7] = test system: SR leukemia
[8] = test system: SF-295 CNS
[9] = test system: BT-549 breast
[10] = test system: MOLT-4 leukemia
[11] = test system: A498 renal
[12] = test system: NCI-H226 lung
[13] = test system: SW-620 colon
[14] = test system: HOP-62 NSCLC

| SMILES | TGI [1] [µM] | TGI [2] [µM] | TGI [3] [µM] | TGI [4] [µM] | TGI [5] [µM] | TGI [6] [µM] | TGI [7] [µM] | TGI [8] [µM] | TGI [9] [µM] | TGI [10] [µM] | TGI [11] [µM] | TGI [12] [µM] | TGI [13] [µM] | TGI [14] [µM] |
| --- | --- | --- | --- | --- | --- | --- | --- | --- | --- | --- | --- | --- | --- | --- |
| O=C(O)c1nc2cc(C(F)(F)F)ccc2nc1Nc1ccc(F)cc1 | 74.7 | 60.2 | 26.5 | 36 | 75.4 | 72.9 | 55 | 58.4 | 46.9 | 59.8 | 47.7 | > 100 | 68.8 | – |
| O=C(Nc1ccc(Cl)cc1)NS(=O)(=O)c1coc2cc(F)ccc2c1=O | > 100 | > 100 | > 100 | > 100 | > 100 | > 100 | > 100 | > 100 | > 100 | > 100 | – | > 100 | > 100 | > 100 |
| CC(=O)N(C)SCC(NC(=O)C(Cc1ccccc1)NC(=O)OCc1ccccc1)C(=O)NC(Cc1ccccc1)C(=O)NC(Cc1cn(C=O)c2ccccc12)C(=O)NC(CCCCNC(=O)OCc1ccccc1)C(=O)NC(C(=O)NC(CSN(C)C(C)=O)C(=O)NC(C(N)=O)C(C)OCc1ccccc1)C(C)OCc1ccccc1 (centres undefined) (Cbz-F[X31]FW(For)K(Cbz)T(Bn)[X31]T(Bn)-NH2; configuration not given here) | – | > 100 | 28.7 | 41.9 | > 100 | > 100 | > 100 | > 100 | 68.1 | > 100 | – | > 100 | > 100 | > 100 |
| COC(=O)c1ccc(C)cc1CC1Cc2cc(C)ccc2C1=O (centres undefined) | > 100 | > 100 | > 100 | – | > 100 | > 100 | > 100 | > 100 | > 100 | > 100 | > 100 | > 100 | > 100 | > 100 |
| C1=NCCN2CCN(CCN=Cc3ccc(cc3)OCc3cccc(n3)COc3ccc1cc3)CC2 | – | > 50 | > 50 | > 50 | > 50 | > 50 | > 50 | > 50 | > 50 | > 50 | > 50 | > 50 | > 50 | > 50 |
| CC(=O)NC1C(OCc2ccccc2)OC(CO)C(O)C1OC(C)C(=O)NC(C(=O)N[C@@H](CCC(=O)NCCNCCNc1c2ccccc2nc2cccc([N+](=O)[O-])c12)C(N)=O)C(C)C (some centres undefined) | > 100 | – | 46.7 | – | – | 41.5 | 5.24 | > 100 | > 100 | 53.2 | > 100 | > 100 | 58.5 | > 100 |
| C=CCNC(=O)NC(=O)CSC1=NNC2(C(=O)N1)c1ccccc1-c1ccccc12 | > 10 | > 10 | – | > 10 | > 10 | > 10 | > 10 | > 10 | > 10 | > 10 | – | > 10 | > 10 | > 10 |
| Cc1cc2c(cc1-c1cc3c(cc1C)C(C(C)C)=C(O)C(=O)/C3=C\Nc1c3ccccc3nc3ccccc13)/C(=C/Nc1c3ccccc3nc3ccccc13)C(=O)C(O)=C2C(C)C | – | 16.6 | 19.2 | 20.1 | 2.97 | 11 | 18.4 | 12.9 | 20.7 | 16 | 21.9 | 5.53 | 13.3 | 16.6 |
| Clc1ccc(NCc2nnc(CCCCCCCCc3nnc(CNc4ccc(Cl)cc4)o3)o2)cc1 | > 100 | > 100 | > 100 | > 100 | > 100 | > 100 | > 100 | > 100 | > 100 | > 100 | > 100 | – | – | > 100 |
| CC(=O)C(=C(c1ccccc1)c1ccccc1)c1ccccc1 | – | > 100 | – | > 100 | > 100 | > 100 | > 100 | > 100 | > 100 | > 100 | – | > 100 | > 100 | > 100 |
| C=CCNC1=C2C[C@@H](C)C[C@@H](OC)[C@H](OC(=O)CCN)[C@H](C)/C=C(\C)[C@@H](OC(N)=O)[C@H](OC)/C=C\C=C(/C)C(=O)NC(=CC1=O)C2=O | 25.6 | 10.3 | 7.12 | 15.1 | 20.2 | 7.71 | > 100 | 14.1 | 21.2 | 12.7 | 17.6 | – | > 100 | 17.5 |
| CC1=NN(C(=O)c2ccccc2O)C(=O)/C1=C/c1ccco1 | 19.7 | > 83.1 | > 100 | – | 37.7 | 37.9 | > 100 | > 88.3 | > 100 | > 100 | > 100 | 44.4 | > 100 | – |
| CC[C@]1(Cc2ccc(OC)c(OC)c2)C=[N+]([O-])O[C@H](OC2CCCC2(c2ccccc2)c2ccccc2)[C@@H]1OC(=O)c1ccccc1 (some centres undefined) | > 100 | > 66.5 | 37.5 | > 25.9 | > 100 | > 24.9 | > 100 | > 65.4 | > 100 | > 21.9 | – | > 100 | > 100 | 62.3 |
| CNc1ncnc2c1ncn2C1C=CC(COS(N)(=O)=O)C1 (centres undefined) | > 100 | > 100 | > 100 | > 100 | > 100 | > 100 | > 100 | > 100 | > 100 | > 100 | > 100 | – | > 100 | > 100 |
| O=C1/C(=C/c2cccc(F)c2)CCCc2ccccc21 | 31.6 | 30.6 | 29.8 | – | 25.5 | 30.5 | 32.8 | 29.7 | 34.1 | 43.6 | – | 27.7 | 30.5 | 27.4 |
| Cn1c2ccccc2n2c(N=O)c(-c3ccccc3)nc12 | > 100 | > 100 | > 100 | > 100 | > 100 | > 100 | > 100 | > 100 | 96.6 | > 100 | > 100 | – | > 100 | 27.6 |
